These results are taken from the OligoGym collection.

Oligonucleotides are written 5' to 3', each unit as a sugar letter and its base; * is a phosphorothioate linkage, no mark a phosphodiester; rarer units and linkages stand in square brackets, end groups in braces. Plain capitals give the bases only. d = 2'-deoxy (DNA); r = 2'-OH (RNA)
Further: test concentration or dose not given here.

For one data set, the target named is UBE2I. The data set is described as follows: reporter assay of Huesken 2005. Particulars: siRNA.
On to “sense rGrArArArGrArArArGrGrGrArCrUrCrCrGrUrGdTdT / antisense rCrArCrGrGrArGrUrCrCrCrUrUrUrCrUrUrUrCdCdT”, for which the normalised inhibition (eCFP-eYFP dual reporter) was 53.1%. Same read-out and setting: the figure for “sense rArGrCrCrArUrCrArCrArArUrCrArArArCrArGdTdT / antisense rCrUrGrUrUrUrGrArUrUrGrUrGrArUrGrGrCrUdGdG” is 60.1%; for “sense rUrCrCrGrUrGrGrGrArArGrGrArGrGrCrUrUrGdTdT / antisense rCrArArGrCrCrUrCrCrUrUrCrCrCrArCrGrGrAdGdT” it is 52.4%. Substance “sense rUrArUrUrArGrGrArArUrArCrArGrGrArArCrUdTdT / antisense rArGrUrUrCrCrUrGrUrArUrUrCrCrUrArArUrAdGdG” came in with a normalised inhibition (eCFP-eYFP dual reporter) of 71.9%. “sense rArUrUrCrCrArGrGrArArArGrArArArGrGrGrAdTdT / antisense rUrCrCrCrUrUrUrCrUrUrUrCrCrUrGrGrArArUdGdG”: the normalised inhibition (eCFP-eYFP dual reporter) came to 83.9%. “sense rGrCrUrUrGrUrUrUrArArArCrUrArCrGrGrArUdTdT / antisense rArUrCrCrGrUrArGrUrUrUrArArArCrArArGrCdCdT” showed a normalised inhibition (eCFP-eYFP dual reporter) of 92.2%. Substance “sense rCrArCrArArUrCrArArArCrArGrArUrCrCrUrAdTdT / antisense rUrArGrGrArUrCrUrGrUrUrUrGrArUrUrGrUrGdAdT” yielded a normalised inhibition (eCFP-eYFP dual reporter) of 87.4%. On the same count and under the same terms, the figure for “sense rCrGrArArUrGrUrGrUrArCrCrCrUrUrCrGrGrGdTdT / antisense rCrCrCrGrArArGrGrGrUrArCrArCrArUrUrCrGdGdG” is 45.1%; for “sense rArUrGrUrArArArUrUrCrGrArArCrCrArCrCrAdTdT / antisense rUrGrGrUrGrGrUrUrCrGrArArUrUrUrArCrArUdTdT” it is 75%.

Turning to “sense rCrCrUrCrArUrGrArArCrUrGrGrGrArGrUrGrCdTdT / antisense rGrCrArCrUrCrCrCrArGrUrUrCrArUrGrArGrGdTdT”, the normalised inhibition (eCFP-eYFP dual reporter) worked out at 72.2%.

“sense rArGrArCrCrArCrCrCrArUrUrUrGrGrUrUrUrCdTdT / antisense rGrArArArCrCrArArArUrGrGrGrUrGrGrUrCrUdTdT” yielded a normalised inhibition (eCFP-eYFP dual reporter) of 79.8%. “sense rArCrArGrUrGrUrGrCrCrUrGrUrCrCrArUrCrUdTdT / antisense rArGrArUrGrGrArCrArGrGrCrArCrArCrUrGrUdCdC” displayed a normalised inhibition (eCFP-eYFP dual reporter) of 59.2%. “sense rUrGrUrGrCrCrUrGrUrCrCrArUrCrUrUrArGrAdTdT / antisense rUrCrUrArArGrArUrGrGrArCrArGrGrCrArCrAdCdT” had a normalised inhibition (eCFP-eYFP dual reporter) of 76%. “sense rArCrCrArArArUrArUrCrCrArArGrArCrCrCrAdTdT / antisense rUrGrGrGrUrCrUrUrGrGrArUrArUrUrUrGrGrUdTdC” showed a normalised inhibition (eCFP-eYFP dual reporter) of 83.9%.

“sense rUrArCrArCrGrArUrUrUrArCrUrGrCrCrArArAdTdT / antisense rUrUrUrGrGrCrArGrUrArArArUrCrGrUrGrUrAdGdG”: the normalised inhibition (eCFP-eYFP dual reporter) was found to be 92.9%. On the same count and under the same terms, the figure for “sense rArCrCrArArArArUrGrUrArArArUrUrCrGrArAdTdT / antisense rUrUrCrGrArArUrUrUrArCrArUrUrUrUrGrGrUdGdG” is 86.4%. In turn, “sense rGrArGrUrGrCrGrCrCrArUrUrCrCrArGrGrArAdTdT / antisense rUrUrCrCrUrGrGrArArUrGrGrCrGrCrArCrUrCdCdC” registered a normalised inhibition (eCFP-eYFP dual reporter) of 72.6%. “sense rArGrGrGrArCrUrCrCrGrUrGrGrGrArArGrGrAdTdT / antisense rUrCrCrUrUrCrCrCrArCrGrGrArGrUrCrCrCrUdTdT” displayed a normalised inhibition (eCFP-eYFP dual reporter) of 72.1%. For the substance “sense rArUrUrUrGrGrUrUrUrCrGrUrGrGrCrUrGrUrCdTdT / antisense rGrArCrArGrCrCrArCrGrArArArCrCrArArArUdGdG”, the normalised inhibition (eCFP-eYFP dual reporter) is 51.6%. Substance “sense rUrUrCrArArArGrArUrGrArUrUrArUrCrCrArUdTdT / antisense rArUrGrGrArUrArArUrCrArUrCrUrUrUrGrArAdAdA” returned a normalised inhibition (eCFP-eYFP dual reporter) of 65.2%. In turn, “sense rCrArGrArGrGrCrCrUrArCrArCrGrArUrUrUrAdTdT / antisense rUrArArArUrCrGrUrGrUrArGrGrCrCrUrCrUrGdCdT” yielded a normalised inhibition (eCFP-eYFP dual reporter) of 83.8%.

“sense rUrUrCrArCrCrCrGrArArUrGrUrGrUrArCrCrCdTdT / antisense rGrGrGrUrArCrArCrArUrUrCrGrGrGrUrGrArAdAdT” displayed a normalised inhibition (eCFP-eYFP dual reporter) of 49.6%. As to “sense rCrGrGrArUrGrCrUrUrUrUrCrArArArGrArUrGdTdT / antisense rCrArUrCrUrUrUrGrArArArArGrCrArUrCrCrGdTdA”, the normalised inhibition (eCFP-eYFP dual reporter) came out at 87.3%. For the substance “sense rUrGrArUrUrArUrCrCrArUrCrUrUrCrGrCrCrAdTdT / antisense rUrGrGrCrGrArArGrArUrGrGrArUrArArUrCrAdTdC”, the normalised inhibition (eCFP-eYFP dual reporter) is 59%. As to “sense rArArGrArArArGrGrGrArCrUrCrCrGrUrGrGrGdTdT / antisense rCrCrCrArCrGrGrArGrUrCrCrCrUrUrUrCrUrUdTdC”, the normalised inhibition (eCFP-eYFP dual reporter) was 45.6%. Take “sense rArUrUrCrGrArArCrCrArCrCrArUrUrArUrUrUdTdT / antisense rArArArUrArArUrGrGrUrGrGrUrUrCrGrArArUdTdT”: the normalised inhibition (eCFP-eYFP dual reporter) was 81%.

In the case of “sense rGrGrArCrArArGrGrArCrUrGrGrArGrGrCrCrAdTdT / antisense rUrGrGrCrCrUrCrCrArGrUrCrCrUrUrGrUrCrCdTdC”, the normalised inhibition (eCFP-eYFP dual reporter) was 85.9%.

Regarding “sense rCrUrUrCrUrArArArUrGrArArCrCrArArArUrAdTdT / antisense rUrArUrUrUrGrGrUrUrCrArUrUrUrArGrArArGdTdT”, the normalised inhibition (eCFP-eYFP dual reporter) was found to be 88.8%.

A further data set deals with RHOQ. Put plainly: reporter assay of Huesken 2005. Particulars: siRNA.
Substance “sense rUrGrArCrUrUrGrArGrCrUrUrArUrArGrCrUrAdTdT / antisense rUrArGrCrUrArUrArArGrCrUrCrArArGrUrCrAdTdG” came in with a normalised inhibition (eCFP-eYFP dual reporter) of 84.9%. Same read-out and setting: the figure for “sense rArArArUrGrGrUrGrGrUrUrCrArCrArUrUrArAdTdT / antisense rUrUrArArUrGrUrGrArArCrCrArCrCrArUrUrUdCdT” is 85.8%; for “sense rUrArGrCrUrArUrGrUrCrUrArCrUrGrCrArCrAdTdT / antisense rUrGrUrGrCrArGrUrArGrArCrArUrArGrCrUrAdTdA” it is 86.8%.

Take “sense rArUrArArUrGrGrArUrGrCrArUrCrArGrArUrAdTdT / antisense rUrArUrCrUrGrArUrGrCrArUrCrCrArUrUrArUdCdT”: the normalised inhibition (eCFP-eYFP dual reporter) came to 80.8%. In turn, “sense rCrArCrArUrUrArArArGrUrArUrCrArUrGrGrCdTdT / antisense rGrCrCrArUrGrArUrArCrUrUrUrArArUrGrUrGdAdA” showed a normalised inhibition (eCFP-eYFP dual reporter) of 62.4%. The substance “sense rGrGrArUrGrUrCrUrUrCrUrUrUrCrUrUrCrCrAdTdT / antisense rUrGrGrArArGrArArArGrArArGrArCrArUrCrCdAdA” returned a normalised inhibition (eCFP-eYFP dual reporter) of 83.2%. In turn, “sense rUrUrArArUrUrCrArCrArUrGrArCrUrUrGrArGdTdT / antisense rCrUrCrArArGrUrCrArUrGrUrGrArArUrUrArAdCdA” displayed a normalised inhibition (eCFP-eYFP dual reporter) of 54.4%. On to “sense rArUrGrGrArUrGrCrArUrCrArGrArUrArArUrGdTdT / antisense rCrArUrUrArUrCrUrGrArUrGrCrArUrCrCrArUdTdA”, for which the normalised inhibition (eCFP-eYFP dual reporter) was 82.5%. In the case of “sense rCrArGrArUrUrGrGrGrUrArArUrGrGrArArCrAdTdT / antisense rUrGrUrUrCrCrArUrUrArCrCrCrArArUrCrUrGdTdG”, the normalised inhibition (eCFP-eYFP dual reporter) turned out to be 86.3%.

In turn, “sense rCrUrCrArArArUrGrGrArArUrCrUrUrArUrGrUdTdT / antisense rArCrArUrArArGrArUrUrCrCrArUrUrUrGrArGdCdA” showed a normalised inhibition (eCFP-eYFP dual reporter) of 55.5%.

“sense rArArArUrCrArArUrUrArArCrArUrArUrUrArGdTdT / antisense rCrUrArArUrArUrGrUrUrArArUrUrGrArUrUrUdAdT” registered a normalised inhibition (eCFP-eYFP dual reporter) of 46.2%. For “sense rUrUrGrCrUrGrUrUrGrCrCrCrArArArUrUrArUdTdT / antisense rArUrArArUrUrUrGrGrGrCrArArCrArGrCrArAdGdT”, the normalised inhibition (eCFP-eYFP dual reporter) is 83.5%. Substance “sense rArGrGrArUrGrUrArCrUrGrUrCrUrUrGrUrUrGdTdT / antisense rCrArArCrArArGrArCrArGrUrArCrArUrCrCrUdAdG” showed a normalised inhibition (eCFP-eYFP dual reporter) of 81.7%.

In turn, “sense rGrArArArGrGrArArUrUrGrUrArUrArArArUrCdTdT / antisense rGrArUrUrUrArUrArCrArArUrUrCrCrUrUrUrCdAdA” displayed a normalised inhibition (eCFP-eYFP dual reporter) of 51.4%. The substance “sense rArUrGrGrArArUrCrUrUrArUrGrUrArArCrUrUdTdT / antisense rArArGrUrUrArCrArUrArArGrArUrUrCrCrArUdTdT” gave a normalised inhibition (eCFP-eYFP dual reporter) of 51.1%. In the case of “sense rCrUrUrArUrUrUrArArUrUrUrUrGrGrUrCrUrGdTdT / antisense rCrArGrArCrCrArArArArUrUrArArArUrArArGdAdA”, the normalised inhibition (eCFP-eYFP dual reporter) amounted to 52.2%. Substance “sense rArArArUrGrArCrArGrCrCrUrUrArArArUrGrCdTdT / antisense rGrCrArUrUrUrArArGrGrCrUrGrUrCrArUrUrUdTdC” had a normalised inhibition (eCFP-eYFP dual reporter) of 42.3%. Regarding “sense rCrArUrUrUrGrGrArUrGrUrCrUrUrCrUrUrUrCdTdT / antisense rGrArArArGrArArGrArCrArUrCrCrArArArUrGdTdC”, the normalised inhibition (eCFP-eYFP dual reporter) is 73.6%. “sense rArCrUrUrUrCrUrUrArUrUrUrArArUrUrUrUrGdTdT / antisense rCrArArArArUrUrArArArUrArArGrArArArGrUdTdA”: the normalised inhibition (eCFP-eYFP dual reporter) came out at 43.6%. In the case of “sense rUrUrUrCrUrUrArUrUrUrArArUrUrUrUrGrGrUdTdT / antisense rArCrCrArArArArUrUrArArArUrArArGrArArAdGdT”, the normalised inhibition (eCFP-eYFP dual reporter) was found to be 44.1%. “sense rUrGrCrArUrCrArGrArUrArArUrGrGrUrGrUrUdTdT / antisense rArArCrArCrCrArUrUrArUrCrUrGrArUrGrCrAdTdC” had a normalised inhibition (eCFP-eYFP dual reporter) of 61.6%.
